Columns and labels:
Type in all cases: biochemical
Gox1615 [1] = biological target: T1, Gox1615 (Gluconobacter oxydans, UniProt Q5FQJ0); assay: NADPH-dependent α-ketocarbonyl reductase activity assay (rate of decrease of NADPH at 340 nm)
T1 sequence (Q5FQJ0 1-332): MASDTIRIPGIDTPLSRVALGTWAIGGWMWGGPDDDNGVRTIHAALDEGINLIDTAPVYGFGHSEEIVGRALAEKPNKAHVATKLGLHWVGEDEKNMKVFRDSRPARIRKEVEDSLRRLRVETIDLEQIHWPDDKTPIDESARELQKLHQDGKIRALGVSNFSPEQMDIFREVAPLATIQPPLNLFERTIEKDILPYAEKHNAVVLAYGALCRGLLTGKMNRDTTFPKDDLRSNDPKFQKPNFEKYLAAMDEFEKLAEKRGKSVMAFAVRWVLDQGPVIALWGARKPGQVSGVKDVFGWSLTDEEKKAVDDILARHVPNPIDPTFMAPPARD
Procedure: Measurement of enzyme activity: NADPH-dependent α-ketocarbonyl reductases were assayed by a routine method used for NAD(P)-linked enzymes by recording the rate of decrease of NADPH at 340 nm (ε = 6.22 mM^-1 x cm^-1)) with substrates at 30 °C. The reaction mixture (1 ml) for reduction of α-ketocarbonyl substrates contained 10 mM substrate, 40 mM potassium phosphate buffer pH 7.0, 0.025 mM NAD(P)H and the enzyme. Reactions were induced by addition of enzyme or substrate. One unit was defined as the amount of enzyme activity catalyzing the conversion of 1 µmol of pyridine nucleotide per min at 30 °C. NMR Analysis of Biotransformation Products: Biotransformations were extracted with equal volumes of CDCl3. and ^13C NMR spectra were recorded on a Bruker Avance 300 DPX spectrometer operating at 300 MHz for ^1H NMR and at 75 MHz for ^13C NMR, respectively. Spectra were processed using Bruker TonSpin 1.3 for Windows software and calibrated to the residual solvent peak of CDCl3 (δH = 7.26 / δC = 77.0).
NADPH-dependent α-ketocarbonyl reductases were assayed by a routine method used for NAD(P)-linked enzymes by recording the rate of decrease of NADPH at 340 nm (ε = 6.22 mM^-1.cm^-1) with substrates at 30 °C. The reaction mixture (1 ml) for reduction of α-ketocarbonyl substrates contained 10 mM substrate, 40 mM potassium phosphate buffer pH 7.0, 0.025 mM NADPH, and the enzyme. Reactions were induced by addition of enzyme or substrate. One unit of activity was defined as the amount of enzyme activity catalyzing the conversion of 1 µmol of pyridine nucleotide per min at 30 °C.
Purified NAD(P)-dependent oxidoreductases were assayed at 30 °C by a routine method used for NAD(P)-linked enzymes by recording the rate of decrease of NAD(P)H at 340 nm (ε = 6.22 mM^-1˙cm^-1) with substrates capable of reduction reactions. The standard reaction mixture (1 ml) for the reduction reactions of substrates contained 10 mM substrate, 40 mM potassium phosphate buffer (K-phosphate buffer) pH 7.0, 0.05 mM NAD(P)H, and the enzyme unless otherwise noted. Reactions were induced by addition of enzyme or substrate. One unit of activity was defined as the amount of enzyme activity catalyzing the conversion of 1 µmol of pyridine nucleotide per min at 30 °C. Measurement of the protein content was performed by the method of Bradford (Bradford M.M., Anal. Biochem. 72:248-254 (1976)). Table 3: Enzymatic activities with α-diketones, α-ketoaldehydes and α-ketoesters

Gox0644 = Gox0644 (Gluconobacter oxydans, UniProt Q5FT75); assay: Kinetic constants from purified enzyme by Lineweaver-Burk plots
Procedure: (§1) Determination of pH and temperature optima and enzyme kinetics: The optimum pH for enzyme activities was determined by a modified method of Salusjärvi, T. et al., Appl. Microbiol. Biotechnol. 65:306-314 (2004) using the following buffer system (50 mM final concentration each): sodium acetate pH 4.5 - 6.5, potassium phosphate pH 6.5 - 8.0, Tris-HCl pH 8.0 - 10. Temperature optima for the biocatalysts were determined under standard reaction conditions at temperatures ranging from 20 - 80 °C. The Michaelis constant (Km) for the proteins was determined from purified enzyme by Lineweaver-Burk plots. Assays were performed at optimum pH for each enzyme and at 30 °C using the best substrate and a targeted substrate. The Km for each substrate was calculated using concentrations of 0.0025 to 10 mM, and the Km NAD(P)H and NAD(P) was calculated using concentrations of 0.01 to 0.5 mM
(§2) 2.9 Kinetic parameters of the keto carbonyl reductases: Kinetic constants were determined from purified enzyme by Lineweaver-Burk plots. The Km and Vmax values for the substrates were calculated using concentrations of 0.025 to 10 mM. The optimal pH values and temperatures for enzyme activities are also shown in Tab. 8. Table 8: Summary of kinetic parameters

Gox1615 [2] = biological target: T1, Gox1615; assay: as above
Procedure: as §1, §2

Compound: CCC(=O)C(C)=O [2,3-pentanedione]
- Gox1615 U/mg* (Gox1615 [1]; Table 3, 10 mM substrate, 40 mM K-phosphate buffer pH 7.0, 0.05 mM NAD(P)H, 30 °C, U/mg = µmol x min^-1 x mg protein^-1): 7.0 U/mg
- Specific Activity (U/mg)* (Gox1615 [1]; Table 5, cofactor NADPH, U/mg = µmol/mg·min): 7.0 U/mg
- Vmax (Gox0644): 70 U/mg protein
- Vmax (Gox1615 [2]): 7.0 U/mg protein

From patent publication EP2316926B1, “Enantioselective production of alpha-hydroxy carbonyl compounds” (priority 2009, dated 2011)
